Measured values from patent publication USRE38132E1, “Phenylpyrrolidines, phenylimidazolidines,3-phenyl-1,3-oxizolidines and 3-phenyl-1,3-thiazolidines and their use in the treatment of inflammatory disease” (Boehringer Ingelheim Pharmaceuticals, Inc., priority 1997, dated 2003).

Experiments:
[1] = tested on: cell bound form of LFA-1 (CD18, CD11a) with ICAM-1, SKW3 cells; test: Inhibition of SKW3 cell binding to ICAM-1 (PMA-stimulated); type: cell-based, human; conditions: Homo sapiens, SKW3, values marked c: no inhibition observed up to highest dose; read-out: Assay to Detect SKW3 Cells Binding to ICAM IC50
Summary of the method: (§1)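 Plates coated with sICAM-1 (40 μg/mL) or fibronectin (100 μg/mL) for 1 h; SKW3 cells in RPMI/15% FBS activated with PMA (50 μg/mL final) added with compound, 2 h at 37° C. Unbound cells washed off; value is concentration (μM) giving 50% binding inhibition.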

[2] = tested on: allogeneic cell transplant response, popliteal lymph node; test: In vivo allogeneic cell transplant model (popliteal lymph node weight); conditions: Mus musculus, po; mice, per os, dose at which 50% inhibition is observed; read-out: Allogeneic Cell Transplantation Assay ACT ED50
Text: In vivo: Allogeneic Cell Transplant Model Purpose of Assay: The ability of cells to recognize other cells from self or from another genetically different individual (non-self) is an important property in maintaining the integrity of tissue and organ structure. The allogeneic cell transplant response is an important model for studies of transplant rejection and immunocompetence. This T-cell-mediated immune response can be induced in adult mice by the injection of lymphocytes from a histoincompatible mouse strain into the footpad . This response is characterized by T-cell proliferation which is limited to the popliteal lymph node that receives drainage from the injected footpad area. No in vitro system can completely duplicate this in vivo response. Thus, this animal model can be used to assess the ability of a test compound to suppress transplant rejection. Description of Assay Protocol: Experiments are conducted using male or female mice (20-26 grams). Any histoincompatible mouse strains suffice for donor and recipient populations. Typically DBA mice are used as donors and […] mice are used as recipients. A minimum of 1 week stabilization and conditioning period is required before use during which time the animals are maintained in accordance with the Animal Resource Center S.O.P. Each study utilizes 36 recipient mice divided into groups of 6. The tests last approximately four days. Donor mice are sacrificed by CO2 asphyxiation and spleens are removed and made into a cell suspension. The cells (1.0·10^7/metatarsal in 0.05 mL) are injected intra dermal (according to standard protocol) into the dorsal metatarsal skin of recipient mice. Four days later, the animals are sacrificed by CO2 asphyxiation and the popliteal nodes are removed and weighed. Groups of mice receiving putative immunosuppressive agents are dosed subcutaneously, intraperitoneally or orally one hour prior to cell injection and daily thereafter according to standard protocol. Student's T-test was used to determine significant differences between popliteal lymph nodes of groups of untreated mice and those mice treated with putative immunosuppressive agents (see: Kroczek, R. A.; Black, C. D. V.; Barbet, […]. Immunology, 1987, 139, 3597). Data are reported as the dose at which 50% inhibition is observed and the manner in which the compound was administered. In Table 23, the following legends are applicable: ^and=not determined. ^bpercent inhibition at 160 μg/mL. ^cno inhibition observed up to highest dose. Exact quantification not always possible due to intrinsic toxicity of compound (see MTT result). ^[…] inhibition (concentration in μM ). ^eapproximated from incomplete dose-response curve. ^fnot determined; compound is a synthesis intermediate.

[3] = tested on: cell bound fibronectin receptor (VLA4) with fibronectin, SKW3 cells; test: Inhibition of SKW3 cell binding to fibronectin (selectivity counter-assay); type: cell-based, human
Summary of the method: as §1

[4] = biological target: T1, interaction of ICAM-1 with the Leukointegrin CD18/CD11a (LFA-1) (Homo sapiens, UniProt P05107+P20701); test: Assay to determine inhibition of LFA-1 binding to ICAM-1 (immunopurified LFA-1 on plate-bound sICAM-1, ELISA readout); conditions: values marked e approximated from incomplete dose-response curve
T1 construct: endogenous in cells; sICAM-1: made in house, secreted from transfected CHO DUX cells
T1 sequence (P20701 26-1170): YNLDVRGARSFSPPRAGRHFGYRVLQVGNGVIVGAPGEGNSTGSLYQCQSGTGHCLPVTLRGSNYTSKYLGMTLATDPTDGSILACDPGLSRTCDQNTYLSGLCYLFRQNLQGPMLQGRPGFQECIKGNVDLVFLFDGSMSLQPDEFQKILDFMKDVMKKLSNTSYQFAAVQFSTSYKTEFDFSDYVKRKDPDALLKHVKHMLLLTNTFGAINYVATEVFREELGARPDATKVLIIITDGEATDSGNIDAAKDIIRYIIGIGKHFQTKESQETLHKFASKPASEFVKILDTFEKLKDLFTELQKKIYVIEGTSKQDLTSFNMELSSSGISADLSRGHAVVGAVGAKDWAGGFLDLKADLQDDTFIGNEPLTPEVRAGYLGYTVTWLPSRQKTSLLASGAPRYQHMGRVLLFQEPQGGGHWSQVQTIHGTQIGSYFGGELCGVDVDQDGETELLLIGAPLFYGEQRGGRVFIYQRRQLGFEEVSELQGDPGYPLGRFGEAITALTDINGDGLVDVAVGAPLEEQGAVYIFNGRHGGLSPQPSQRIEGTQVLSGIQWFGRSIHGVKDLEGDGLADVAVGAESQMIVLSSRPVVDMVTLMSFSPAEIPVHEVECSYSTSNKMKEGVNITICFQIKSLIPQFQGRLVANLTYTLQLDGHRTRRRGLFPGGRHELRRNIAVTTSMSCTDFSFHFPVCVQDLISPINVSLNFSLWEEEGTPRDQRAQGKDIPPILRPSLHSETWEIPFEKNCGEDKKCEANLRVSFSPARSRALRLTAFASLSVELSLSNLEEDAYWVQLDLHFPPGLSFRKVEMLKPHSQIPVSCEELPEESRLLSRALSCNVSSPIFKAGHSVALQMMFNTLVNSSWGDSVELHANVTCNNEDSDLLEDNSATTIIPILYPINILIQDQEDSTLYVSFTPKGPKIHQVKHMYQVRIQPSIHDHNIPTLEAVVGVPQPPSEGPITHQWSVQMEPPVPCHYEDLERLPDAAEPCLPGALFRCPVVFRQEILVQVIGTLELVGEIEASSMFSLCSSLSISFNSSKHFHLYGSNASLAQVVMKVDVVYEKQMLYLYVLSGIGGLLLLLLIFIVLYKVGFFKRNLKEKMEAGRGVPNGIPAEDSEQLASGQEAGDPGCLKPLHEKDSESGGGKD
T1 sequence (P05107 23-769): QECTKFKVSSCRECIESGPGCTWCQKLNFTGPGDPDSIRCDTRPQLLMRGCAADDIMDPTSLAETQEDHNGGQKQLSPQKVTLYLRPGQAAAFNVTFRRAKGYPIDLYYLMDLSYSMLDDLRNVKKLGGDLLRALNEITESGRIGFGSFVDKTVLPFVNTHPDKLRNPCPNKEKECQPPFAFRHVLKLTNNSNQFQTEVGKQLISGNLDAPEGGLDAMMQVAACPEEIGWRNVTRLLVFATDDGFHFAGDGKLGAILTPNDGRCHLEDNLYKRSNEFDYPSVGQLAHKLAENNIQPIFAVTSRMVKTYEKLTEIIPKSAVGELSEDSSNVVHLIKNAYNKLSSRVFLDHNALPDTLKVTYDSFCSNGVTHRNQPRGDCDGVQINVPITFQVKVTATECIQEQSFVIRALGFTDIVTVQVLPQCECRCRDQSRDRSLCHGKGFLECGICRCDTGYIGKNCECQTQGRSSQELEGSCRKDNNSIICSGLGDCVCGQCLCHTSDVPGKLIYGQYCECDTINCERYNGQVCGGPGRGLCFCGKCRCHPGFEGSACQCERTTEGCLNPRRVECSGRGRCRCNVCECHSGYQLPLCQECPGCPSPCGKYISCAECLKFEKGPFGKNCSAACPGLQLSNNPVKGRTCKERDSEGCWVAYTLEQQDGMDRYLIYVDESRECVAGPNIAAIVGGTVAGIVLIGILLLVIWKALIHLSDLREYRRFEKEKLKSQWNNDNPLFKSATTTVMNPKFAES
Text: Assay to Determine Inhibition of LFA-1 Binding to ICAM-1 Purpose of Assay: This assay protocol is designed to study the direct antagonism, by a test compound, of the interaction of the CAM, ICAM-1 with the Leukointegrin CD18/CD11a (LFA-1). […] After collection and neutralization of fractions from the TS2/4 column, samples are pooled and precleared with Protein G agarose. […] Wells are washed 3 times with Diluting Buffer. The bound LFA-1 is detected by the addition of a polyclonal antibody directed against a peptide corresponding to the CD18 cytoplasmic tail in a 1:100 dilution with Diluting Buffer and 1% BSA and allowed to incubate for 45 min at 37° C. Wells are washed 3 times with Diluting Buffer and the bound polyclonal antibody is detected by the addition of a 1:4000 dilution of horse radish peroxidase conjugated to goat immunoglobulin directed against rabbit immunoglobulin. […] The lack of the addition of LFA-1 to the binding assay is used as a background control for all samples. A dose-response curve is obtained for all test compounds. Results of these tests are reported as Kd's in μM.

SMILES	IC50 [1]	ED50 [2]	Assay to Detect SKW3 Cells Binding to FIBRONECTIN IC50 ([3]; values marked c: no inhibition observed up to highest dose)	Kd [4]	IC50 ([3]; Homo sapiens, SKW3, values marked c: no inhibition observed up to highest dose, read-out: Assay to Detect SKW3 Cells Binding to FIBRONECTIN IC50)
C[C@]1(Cc2ccc(Br)cc2)NC(=O)N(c2cc(Cl)cc(Cl)c2)C1=O [Example 29]	8 µM	~60 mg/kg	No inh^c	–	–
CC(=O)N1C(=O)N(c2cc(Cl)cc(Cl)c2)C(=O)[C@@]1(C)Cc1ccc(Br)cc1 [Example 102]	25 to 50 µM	~25 mg/kg	–	0.06 µM	> 200 µM
